In ChEMBL document CHEMBL5724914, “Linking interpersonal differences in gut microbiota composition and drug biotransformation activity” (2024):

What was measured:
[1] = human gut metagenome, 24 h, 2 µM
[2] = human gut metagenome, 24 h, 2 µM; remark: listed apart in the source
[3] = The drug is tested on Z-019 corresponding to rat gut metagenome with ENA study accession number: PRJEB37062 and ENA sample accession number: ERS12561818 for biotransformation under anaerobic condition. The drug concentrations were measured over 9 timepoints collected between 0 and 24 hours of incubation by liquid-chromatography-coupled mass spectrometry (LC–MS); settings: 2 µM
[4] = human gut metagenome, 24 h, 2 µM; remark: listed apart in the source
[5] = human gut metagenome, 24 h, 2 µM; remark: listed apart in the source
[6] = human gut metagenome, 24 h, 2 µM; remark: listed apart in the source
[7] = The drug is tested on Z-026 corresponding to metagenome with ENA study accession number: PRJEB37062 and ENA sample accession number: ERS12561825 for biotransformation under anaerobic condition. The drug concentrations were measured over 9 timepoints collected between 0 and 24 hours of incubation by liquid-chromatography-coupled mass spectrometry (LC–MS); settings: 2 µM
[8] = human gut metagenome, 24 h, 2 µM; remark: listed apart in the source
[9] = The drug is tested on Z-006 corresponding to mouse gut metagenome with ENA study accession number: PRJEB37062 and ENA sample accession number: ERS12561806 for biotransformation under anaerobic condition. The drug concentrations were measured over 9 timepoints collected between 0 and 24 hours of incubation by liquid-chromatography-coupled mass spectrometry (LC–MS); settings: 2 µM
[10] = The drug is tested on Z-014 corresponding to rat gut metagenome with ENA study accession number: PRJEB37062 and ENA sample accession number: ERS12561814 for biotransformation under anaerobic condition. The drug concentrations were measured over 9 timepoints collected between 0 and 24 hours of incubation by liquid-chromatography-coupled mass spectrometry (LC–MS); settings: 2 µM
[11] = human gut metagenome, 24 h, 2 µM; remark: listed apart in the source
[12] = The drug is tested on Z-013 corresponding to rabbit gut metagenome with ENA study accession number: PRJEB37062 and ENA sample accession number: ERS12561813 for biotransformation under anaerobic condition. The drug concentrations were measured over 9 timepoints collected between 0 and 24 hours of incubation by liquid-chromatography-coupled mass spectrometry (LC–MS); settings: 2 µM
[13] = The drug is tested on Z-017 corresponding to mouse gut metagenome with ENA study accession number: PRJEB37062 and ENA sample accession number: ERS12561816 for biotransformation under anaerobic condition. The drug concentrations were measured over 9 timepoints collected between 0 and 24 hours of incubation by liquid-chromatography-coupled mass spectrometry (LC–MS); settings: 2 µM
[14] = The drug is tested on WLS-240 corresponding to human gut metagenome with ENA study accession number: PRJEB37062 and ENA sample accession number: ERS12561773 for biotransformation under anaerobic condition. The drug concentrations were measured over 9 timepoints collected between 0 and 24 hours of incubation by liquid-chromatography-coupled mass spectrometry (LC–MS); settings: 2 µM
[15] = human gut metagenome, 24 h, 2 µM; remark: listed apart in the source
[16] = human gut metagenome, 24 h, 2 µM; remark: listed apart in the source
[17] = The drug is tested on WLS-027 corresponding to human gut metagenome with ENA study accession number: PRJEB37062 and ENA sample accession number: ERS12561744 for biotransformation under anaerobic condition. The drug concentrations were measured over 9 timepoints collected between 0 and 24 hours of incubation by liquid-chromatography-coupled mass spectrometry (LC–MS); settings: 2 µM
[18] = The drug is tested on WLS-170 corresponding to human gut metagenome with ENA study accession number: PRJEB37062 and ENA sample accession number: ERS12561762 for biotransformation under anaerobic condition. The drug concentrations were measured over 9 timepoints collected between 0 and 24 hours of incubation by liquid-chromatography-coupled mass spectrometry (LC–MS); settings: 2 µM
[19] = The drug is tested on WLS-077 corresponding to human gut metagenome with ENA study accession number: PRJEB37062 and ENA sample accession number: ERS12561750 for biotransformation under anaerobic condition. The drug concentrations were measured over 9 timepoints collected between 0 and 24 hours of incubation by liquid-chromatography-coupled mass spectrometry (LC–MS); settings: 2 µM
[20] = human gut metagenome, 24 h, 2 µM; remark: listed apart in the source
Also: call rule not given here.

Row | SMILES | Bacterial Biotransformation [1] | Bacterial Biotransformation [2] | Bacterial Biotransformation [3] | Bacterial Biotransformation [4] | Bacterial Biotransformation [5] | Bacterial Biotransformation [6] | Bacterial Biotransformation [7] | Bacterial Biotransformation [8] | Bacterial Biotransformation [9] | Bacterial Biotransformation [10] | Bacterial Biotransformation [11] | Bacterial Biotransformation [12] | Bacterial Biotransformation [13] | Bacterial Biotransformation [14] | Bacterial Biotransformation [15] | Bacterial Biotransformation [16] | Bacterial Biotransformation [17] | Bacterial Biotransformation [18] | Bacterial Biotransformation [19] | Bacterial Biotransformation [20]
1 | COc1c(C)c2c(c(O)c1C/C=C(\C)CCC(=O)OCCN1CCOCC1)C(=O)OC2 [MYCOPHENOLATE MOFETIL] | Compound metabolized | Compound metabolized | Compound NOT metabolized | Compound metabolized | Compound metabolized | Compound metabolized | Compound metabolized | Compound metabolized | Compound metabolized | Compound metabolized | Compound metabolized | Compound metabolized | Compound metabolized | Compound metabolized | Compound metabolized | Compound metabolized | Compound metabolized | Compound metabolized | Compound metabolized | Compound metabolized
2 | CCN(CC)CCOC(=O)C(Cc1cccc2ccccc12)CC1CCCO1.O=C(O)C(=O)O (stereo not given) [NAFRONYL OXALATE] | Compound metabolized | Compound metabolized | Compound NOT metabolized | Compound NOT metabolized | Compound NOT metabolized | Compound metabolized | Compound NOT metabolized | Compound metabolized | Compound metabolized | Compound NOT metabolized | Compound metabolized | Compound NOT metabolized | Compound NOT metabolized | Compound metabolized | Compound metabolized | Compound metabolized | Compound metabolized | Compound metabolized | Compound metabolized | Compound metabolized
3 | C=CCN1CC[C@]23c4c5ccc(O)c4O[C@H]2C(=O)CC[C@@]3(O)[C@H]1C5 [NALOXONE] | Compound NOT metabolized | Compound NOT metabolized | Compound NOT metabolized | Compound NOT metabolized | Compound NOT metabolized | Compound NOT metabolized | Compound NOT metabolized | Compound NOT metabolized | Compound NOT metabolized | Compound NOT metabolized | Compound NOT metabolized | Compound NOT metabolized | Compound NOT metabolized | Compound NOT metabolized | Compound NOT metabolized | Compound NOT metabolized | Compound NOT metabolized | Compound NOT metabolized | Compound NOT metabolized | Compound NOT metabolized
4 | CCc1nn(CCCN2CCN(c3cccc(Cl)c3)CC2)c(=O)n1CCOc1ccccc1 [NEFAZODONE] | Compound metabolized | Compound NOT metabolized | Compound NOT metabolized | Compound NOT metabolized | Compound metabolized | Compound metabolized | Compound NOT metabolized | Compound metabolized | Compound NOT metabolized | Compound NOT metabolized | Compound metabolized | Compound NOT metabolized | Compound NOT metabolized | Compound metabolized | Compound metabolized | Compound metabolized | Compound metabolized | Compound metabolized | Compound NOT metabolized | Compound metabolized
5 | CN1CCOC(c2ccccc2)c2ccccc2C1 (stereo not given) [NEFOPAM] | Compound metabolized | Compound metabolized | Compound NOT metabolized | Compound NOT metabolized | Compound NOT metabolized | Compound NOT metabolized | Compound NOT metabolized | Compound metabolized | Compound NOT metabolized | Compound NOT metabolized | Compound NOT metabolized | Compound NOT metabolized | Compound NOT metabolized | Compound NOT metabolized | Compound metabolized | Compound metabolized | Compound metabolized | Compound NOT metabolized | Compound NOT metabolized | Compound metabolized
6 | Cc1ccnc2c1NC(=O)c1cccnc1N2C1CC1 [NEVIRAPINE] | Compound metabolized | Compound NOT metabolized | Compound NOT metabolized | Compound NOT metabolized | Compound NOT metabolized | Compound metabolized | Compound NOT metabolized | Compound metabolized | Compound NOT metabolized | Compound NOT metabolized | Compound NOT metabolized | Compound NOT metabolized | Compound NOT metabolized | Compound metabolized | Compound metabolized | Compound metabolized | Compound NOT metabolized | Compound metabolized | Compound NOT metabolized | Compound metabolized
